The results in this text go back to patent publication US6825172B2, “3-descladinosyl-6-O-carbamoyl and 6-O-carbonoyl macrolide antibacterial agents” (Janssen Pharmaceutica, NV, priority 2002, dated 2004).

Each structure is given as a SMILES string. ≈ marks a conversion by molar mass, not a printed value.

Assay in all cases: MIC, microdilution broth method (NCCLS)
Common to all, as to assay type: cell-based
A general note: Dilution methods test growth across graded concentrations, often in twofold steps.

One test deals with E. coli OC2605. The note with it: Escherichia coli, Table 1, 6-Carbamoyl-3-Acyl Macrolide Derivatives, read-out: MIC Values, A: E. coli OC2605. How it is done:
(§1) Minimal inhibitory concentration (MIC) has been an indicator of in vitro antibacterial activity widely used in the art. The in vitro antimicrobial activity of the compounds was determined by the microdilution broth method following the test method from the National Committee for Clinical Laboratory Standards (NCCLS). This method is described in the NCCLS Document M7-A4, Vol.17, No.2, “Methods for Dilution Antimicrobial Susceptibility Test for Bacteria that Grow Aerobically—Fourth Edition”, which is incorporated herein by reference.
(§2) In this method two-fold serial dilutions of drug in cation adjusted Mueller-Hinton broth are added to wells in microdilution trays. The test organisms are prepared by adjusting the turbidity of actively growing broth cultures so that the final concentration of test organism after it is added to the wells is approximately 5×10^4 CFU/well.
(§3) Following inoculation of the microdilution trays, the trays are incubated at 35 °C for 16-20 hours and then read. […] The amount of growth in the wells containing the test compound is compared with the amount of growth in the growth-control wells (no test compound) used in each tray. As set forth in Table 1, compounds of the present invention were tested against a variety of Gram positive and Gram negative pathogenic bacteria resulting in a range of activities depending on the organism tested.

In a further test the test system is E. faecalis ATCC29212. The settings on record: Enterococcus faecalis, Table 1, 6-Carbamoyl-3-Acyl Macrolide Derivatives, read-out: MIC Values, C: E. faecalis ATCC29212. How it is done: as §1, §2, §3
The next test has as its system S. pneumoniae ATCC49619. The settings on record: Streptococcus pneumoniae, Table 1, 6-Carbamoyl-3-Acyl Macrolide Derivatives, read-out: MIC Values, D: S. pneumoniae ATCC49619. How it is done: as §1, §2, §3
For a further test, the system named is H. influenzae ATCC49247. The note with it: Haemophilus influenzae, Table 1, 6-Carbamoyl-3-Acyl Macrolide Derivatives, read-out: MIC Values, E: H. influenzae ATCC49247. The protocol: as §1, §2, §3
For a further test, the system named is S. aureus ATCC29213. The settings on record: Staphylococcus aureus, Table 1, 6-Carbamoyl-3-Acyl Macrolide Derivatives, read-out: MIC Values, B: S. aureus ATCC29213. How it is done:
as §1, §2, §3

As for `CC[C@H]1OC(=O)[C@H](C)[C@@H](OC(=O)Cc2cccnc2)[C@H](C)[C@@H](O[C@@H]2O[C@H](C)C[C@H](N(C)C)[C@H]2O)[C@](C)(OC(=O)NC/C=C/c2ccccc2)C[C@@H](C)C(=O)[C@H](C)[C@H]2NC(=O)O[C@@]21C` [Compound 21], the MIC stood at 8 µg/mL (≈ 9.1 µM) in the test with E. coli OC2605; 0.25 µg/mL (≈ 0.284 µM) with E. faecalis ATCC29212; 0.06 µg/mL (≈ 0.0683 µM) in the test on S. pneumoniae ATCC49619; 2 µg/mL (≈ 2.28 µM) in the test with H. influenzae ATCC49247; 0.5 µg/mL (≈ 0.569 µM) in the test with S. aureus ATCC29213.

With `CC[C@H]1OC(=O)[C@H](C)[C@@H](OC(=O)C(C)C)[C@H](C)[C@@H](O[C@@H]2O[C@H](C)C[C@H](N(C)C)[C@H]2O)[C@](C)(OC(=O)NC/C=C/c2ccc(-c3ncccn3)cc2)C[C@@H](C)C(=O)[C@H](C)[C@H]2NC(=O)O[C@@]21C` [Compound 1, Propanoic acid, 2-methyl-, (3aS,4R,7R,8S,9S,10R, 11R,13R,15R,15aR)-4-ethyltetradecahydro-3a,7,9,11,13,15-hexamethyl-2,6,14-trioxo-11-[[[[(2E)-3-[4-(2-pyrimidinyl)phenyl]-2-propenyl]amino]carbonyl]oxy]-10-[[3,4,6-trideoxy-3-(dimethylamino)-β-D-xylo-hexopyranosyl]oxy]-2H-oxacyclotetradecino[4,3-d]oxazol-8-yl ester], the MIC in the test with E. coli OC2605 was determined as 16 µg/mL (≈ 17.6 µM); in the test with E. faecalis ATCC29212, 0.25 µg/mL (≈ 0.275 µM); in the test on S. pneumoniae ATCC49619, 0.06 µg/mL (≈ 0.0661 µM); with H. influenzae ATCC49247, 1 µg/mL (≈ 1.1 µM); in the test on S. aureus ATCC29213 it was 0.5 µg/mL (≈ 0.551 µM).

Turning to `CC[C@H]1OC(=O)[C@H](C)[C@@H](OC(=O)Cc2ccncc2)[C@H](C)[C@@H](O[C@@H]2O[C@H](C)C[C@H](N(C)C)[C@H]2O)[C@](C)(OC(=O)NC/C=C/c2ccc(-c3ncccn3)cc2)C[C@@H](C)C(=O)[C@H](C)[C@H]2NC(=O)O[C@@]21C` [Compound 8], the MIC with E. coli OC2605 came out at 16 µg/mL (≈ 16.7 µM); in the test on E. faecalis ATCC29212 it was 0.25 µg/mL (≈ 0.261 µM); in the test with S. pneumoniae ATCC49619, 0.06 µg/mL (≈ 0.0627 µM); in the test on H. influenzae ATCC49247, 2 µg/mL (≈ 2.09 µM); in the test on S. aureus ATCC29213 it was 0.5 µg/mL (≈ 0.522 µM).

In the case of `CC[C@H]1OC(=O)[C@H](C)[C@@H](OC(=O)Cc2cccnc2)[C@H](C)[C@@H](O[C@@H]2O[C@H](C)C[C@H](N(C)C)[C@H]2O)[C@](C)(OC(=O)NC/C=C/c2ccc(Br)nc2)C[C@@H](C)C(=O)[C@H](C)[C@H]2NC(=O)O[C@@]21C` [Compound 28], the MIC in the test on E. coli OC2605 was 8 µg/mL (≈ 8.34 µM); with E. faecalis ATCC29212, 0.25 µg/mL (≈ 0.261 µM); in the test with S. pneumoniae ATCC49619, under 0.015 µg/mL; with H. influenzae ATCC49247 it was 1 µg/mL (≈ 1.04 µM); in the test on S. aureus ATCC29213 it was 0.5 µg/mL (≈ 0.521 µM).

Regarding `CC[C@H]1OC(=O)[C@H](C)[C@@H](OC(=O)C(C)C)[C@H](C)[C@@H](O[C@@H]2O[C@H](C)C[C@H](N(C)C)[C@H]2O)[C@](C)(OC(=O)NC/C=C/c2cnc3ccccc3c2)C[C@@H](C)C(=O)[C@H](C)[C@H]2NC(=O)O[C@@]21C` [Compound 31, Propanoic acid, 2-methyl-, (3aS,4R,7R,8S,9S,10R,11R,13R,15R,15aR)-4-ethyltetradecahydro-3a,7,9,11,13,15-hexamethyl-2,6,14-trioxo-11-[[[[(2E)-3-(3-quinolinyl)-2-propenyl]amino]carbonyl]oxy]-10-[[3,4,6-trideoxy-3-(dimethylamino)-β-D-xylo-hexopyranosyl]oxy]-2H-oxacyclotetradecino[4,3-d]oxazol-8-yl ester], the MIC in the test on E. coli OC2605 came to 8 µg/mL (≈ 9.08 µM); in the test on E. faecalis ATCC29212, 0.25 µg/mL (≈ 0.284 µM); with S. pneumoniae ATCC49619 it was 0.03 µg/mL (≈ 0.034 µM); in the test on H. influenzae ATCC49247, 4 µg/mL (≈ 4.54 µM); with S. aureus ATCC29213, 0.5 µg/mL (≈ 0.567 µM).

Take `CC[C@H]1OC(=O)[C@H](C)[C@@H](OC(=O)Cc2cccnc2)[C@H](C)[C@@H](O[C@@H]2O[C@H](C)C[C@H](N(C)C)[C@H]2O)[C@](C)(OC(=O)NC/C=C/c2cnc(C(C)C)nc2)C[C@@H](C)C(=O)[C@H](C)[C@H]2NC(=O)O[C@@]21C` [Compound 41]: the MIC with E. coli OC2605 was over 16 µg/mL; with E. faecalis ATCC29212, 0.5 µg/mL (≈ 0.542 µM); with S. pneumoniae ATCC49619, 0.12 µg/mL (≈ 0.13 µM); with H. influenzae ATCC49247, 4 µg/mL (≈ 4.33 µM); in the test with S. aureus ATCC29213, 1 µg/mL (≈ 1.08 µM).
